# Results reported in patent publication US8748423B2, “Compositions and methods for the prevention and treatment of cancer” (Kinex Pharmaceuticals, LLC, priority 2010, dated 2014).
# Where “and” joins values, the source holds several entries; their conditions need not be identical. Identical values can stand only once. Entries after “also recorded” stand apart in the source; their conditions may differ. Like-named read-outs stand apart in the source and are kept apart here.
# Assays:
# [1] = system: Daoy; assay: brain tumor cell line growth inhibition, Daoy; assay type: cell-based; details: Homo sapiens, desmoplastic cerebellar medulloblastoma
# Experimental: (§1) These GI50s were determined using standard tumor growth inhibition assays.
# [2] = system: SW1088; assay: brain tumor cell line growth inhibition, SW1088; assay type: cell-based; details: Homo sapiens; SW1088, astrocytoma
# Experimental: as §1
# [3] = system: SK-N-FI; assay: brain tumor cell line growth inhibition, SK-N-FI; assay type: cell-based; details: Homo sapiens, neuroblastoma
# Experimental: as §1
# [4] = plasma and brain exposure after single oral dose; assay type: in vivo, Male CD-1 Mice; details: for Brain Concentrations, Group A, B, C / Plasma Concentrations, Group A, B, C / concentration at 0 h: 0 hr; for Kp: brain and plasma, read-out: AUClast Brain/AUClast Plasma Ratio
# Experimental: […] The concentration of Compound 76 was measured in plasma and in brain tissue homogenates.
# Plasma concentrations were measured in mice after oral administration. All doses were formulated in purified water. Four groups of male CD-1 mice were dosed after an overnight fast and fed 4 hours post-dose. Dosing was as follows:
# Protein was precipitated with 0.25 mL acetonitrile for plasma, 0.25 mL for brain. After centrifugation, supernatant was directly injected into an LC/MS system. The limit of quantitation was 1 ng/mL using a 50 μL aliquot for plasma and a […] aliquot for brain. The standard curve was 1 to 1,000 ng/mL for both plasma and brain.
# HPLC conditions were as follows:
# • HPLC System: Shimadzu SCL-10 System • Analytical Column: Aquasil C18 5 μm 100×2 mm column. • Column Temperature: Ambient temperature • Autosampler Temperature: Ambient temperature • Mobile Phase • A) 10 mM Ammonium formate in water (pH 4). • B) Acetonitrile. • Flow Rate: 0.6 mL/min • Injection Volume: 2 μL
# [5] = body weight in GL261 glioma survival study; assay type: in vivo, C57BL/6 mice
# Experimental: The studies were conducted in C57BL/6 mice. GL261 glioma cells (1×10^5 in 5 μl DMEM) were implanted intracranial coordinates: bregma, lateral 2.0 mm, anterior 1.2 mm, 3.0 mm depth dura. Treatment was initiated 3 days post implantation.
# FIGS. 2A-F show the weight gain in each of the C57BL/6 mice in the different treatment groups. The average weight at endpoint for each of the treatment groups is shown below in Table 12. FIG. 3 is a graph showing the average weights over a 40-day period for each of the treatment groups.
# [6] = system: GL261 glioma; assay: GL261 intracerebral tumors in SCID mice; assay type: in vivo, B6.CB17-Prkdc^scid/SzJ mice
# Description: FIGS. 4A-C are a series of graphs showing the survival of C57BL6 mice with intracerebral GL261 glioma implants. Mice received intracerebral implants of 1×10^5 GL261 cells by stereotactic injection at 2 mm lateral, 1 mm anterior to bregma at 3 mm depth. After 4 days mice began indicated regimen of oral Compound 76. […] Compound 76 extended median survival from 21 to 29 days (range). n=10. […] Compound 76 extended median survival >100 days (range), with up to 60% of drug treated mice experiencing complete tumor regression, n=10. Long term survivors were confirmed tumor free by high field MRI in FIG. 6. […] See high field MRI in FIG. 6
# (§2) Compound 76 was also evaluated in the orthotropic GL261 glioma model in immune-competent, syngeneic C57BL/6 mice. Mice implanted intracerebrally with 1×10^5 GL261 cells treated with vehicle alone (saline) have a median survival time (MeST) of 21 days (range 18-28). Mice treated by oral Compound 76 (30 mg/kg, b.i.d.) have a MeST of 30.5 days ranging 23-32 days. In contrast, when Compound 76 is given orally at (30 mg/kg, s.i.d.) the MeST increases to over 120 days, with more than 60% of the treatment group still alive 12 months later (p<0.0001). […] Further experiments were performed using a SCID version of C57BL/6 mice (B6.CB17-Prkdc^scid/SzJ), a mouse model of B6 background, but is immune-compromised.
# as §2, with “was” for “was also”
# [7] = system: GL261 glioma; assay: re-challenge of long term survivor mice with s.c. GL261 cells; assay type: in vivo, C57BL/6 mice; details: 1×10^6 s.c. GL261 cells; mice cured by Compound 76
# Description: FIG. 5 is a graph of re-challenge of Compound 76 treated long term survivor mice from FIG. 4B with 1×10^6 s.c. GL261 glioa cells. Age and litter matched controls were implanted.
# [8] = system: survivin; assay: additional molecular studies, survivin
# [9] = PO 10 mg/kg (Group 3), single values
# [10] = PO 50 mg/kg (Group 4), single values
# [11] = male, CD-1, mouse, brain, po, 10 mg/kg, PO 10 mg/kg (Group 3), BLQ = 0, read-out: Brain Concentrations, Mean
# [12] = male, CD-1, mouse, brain, po, 50 mg/kg, PO 50 mg/kg (Group 4), read-out: Brain Concentrations, Mean
# [13] = male, CD-1, mouse, plasma, po, 10 mg/kg, PO 10 mg/kg (Group 3), read-out: Plasma Concentrations, Mean
# [14] = male, CD-1, mouse, plasma, po, 50 mg/kg, PO 50 mg/kg (Group 4), read-out: Plasma Concentrations, Mean
# [15] = male, CD-1, mouse, po, Brain, single dose of 50 mg/kg (Group 4)
# [16] = male, CD-1, mouse, po, Plasma, single dose of 50 mg/kg (Group 4)
# [17] = male, CD-1, mouse, Brain, single oral dose of 10 mg/kg
# [18] = male, CD-1, mouse, Plasma, single oral dose of 10 mg/kg
smiles,measurement,setting,value
O=C(Cc1ccc(-c2ccc(N3CCOCC3)cc2)cn1)NCc1cccc(F)c1 [Compound 76],IC50,[1],54.9 nM
same,IC50,[2],22.1 nM
same,IC50,[3],0.46 nM
same,AUClast,"[4]; Brain, single dose of 50 mg/kg (Group 4)",3338 ng·h/g
same,AUClast,"[4]; Brain, single oral dose of 10 mg/kg",656 ng·h/g
same,"Brain Concentrations, Group A, B, C",[4]; [9],BLQ (Below Limit of Quantitation (1 ng/mL))
same,"Plasma Concentrations, Group A, B, C",[4]; [9],BLQ (Below Limit of Quantitation (1 ng/mL))
same,"Brain Concentrations, Group A, B, C",[4]; [10],BLQ (Below Limit of Quantitation (1 ng/mL))
same,"Plasma Concentrations, Group A, B, C",[4]; [10],BLQ (Below Limit of Quantitation (1 ng/mL))
same,Kp,"[4]; male, CD-1, mouse, oral 10 mg/kg",0.76
same,Kp,"[4]; male, CD-1, mouse, oral 50 mg/kg",0.61
same,concentration at 0 h,[4]; [11],0 ng/g
same,concentration at 0.5 h,"[4]; male, CD-1, mouse, brain, po, 10 mg/kg, PO 10 mg/kg (Group 3), 0.5 hr, read-out: Brain Concentrations, Mean",99.8 ng/g
same,concentration at 1 h,"[4]; male, CD-1, mouse, brain, po, 10 mg/kg, PO 10 mg/kg (Group 3), 1 hr, read-out: Brain Concentrations, Mean",279 ng/g
same,concentration at 1 h,"[4]; male, CD-1, mouse, brain, po, 10 mg/kg, PO 10 mg/kg (Group 3), 1 hr, single values, read-out: Brain Concentrations, Group A, B, C",228 ng/g
same,concentration at 2 h,"[4]; male, CD-1, mouse, brain, po, 10 mg/kg, PO 10 mg/kg (Group 3), read-out: Brain Concentrations, Mean",175 ng/g
same,concentration at 5 h,[4]; [11],31.8 ng/g
same,concentration at 5 h,"[4]; male, CD-1, mouse, brain, po, 10 mg/kg, PO 10 mg/kg (Group 3), single values, read-out: Brain Concentrations, Group A, B, C",47.5 ng/g
same,concentration at 0 h,"[4]; male, CD-1, mouse, brain, po, 50 mg/kg, PO 50 mg/kg (Group 4), BLQ = 0, read-out: Brain Concentrations, Mean",0 ng/g
same,concentration at 0.5 hr,"[4]; male, CD-1, mouse, brain, po, 50 mg/kg, PO 50 mg/kg (Group 4), 0.5 hr, read-out: Brain Concentrations, Mean",1380 ng/g
same,concentration at 1 hr,"[4]; male, CD-1, mouse, brain, po, 50 mg/kg, PO 50 mg/kg (Group 4), 1 hr, read-out: Brain Concentrations, Mean",1100 ng/g
same,concentration at 2 h,[4]; [12],758 ng/g
same,concentration at 5 h,[4]; [12],207 ng/g
same,concentration at 0 h,"[4]; male, CD-1, mouse, plasma, po, 10 mg/kg, PO 10 mg/kg (Group 3), BLQ = 0, read-out: Plasma Concentrations, Mean",0 ng/mL
same,concentration at 0.5 h,"[4]; male, CD-1, mouse, plasma, po, 10 mg/kg, PO 10 mg/kg (Group 3), 0.5 hr, read-out: Plasma Concentrations, Mean",148 ng/mL
same,concentration at 1 h,"[4]; male, CD-1, mouse, plasma, po, 10 mg/kg, PO 10 mg/kg (Group 3), 1 hr, read-out: Plasma Concentrations, Mean",426 ng/mL
same,concentration at 2 h,[4]; [13],205 ng/mL
same,concentration at 5 h,[4]; [13],40 ng/mL
same,concentration at 0 h,"[4]; male, CD-1, mouse, plasma, po, 50 mg/kg, PO 50 mg/kg (Group 4), BLQ = 0, read-out: Plasma Concentrations, Mean",0 ng/mL
same,concentration at 0.5 h,"[4]; male, CD-1, mouse, plasma, po, 50 mg/kg, PO 50 mg/kg (Group 4), 0.5 hr, read-out: Plasma Concentrations, Mean",1800 ng/mL
same,concentration at 0.5 h,"[4]; male, CD-1, mouse, plasma, po, 50 mg/kg, PO 50 mg/kg (Group 4), 0.5 hr, single values, read-out: Plasma Concentrations, Group A, B, C",1490 ng/mL
same,concentration at 1 h,"[4]; male, CD-1, mouse, plasma, po, 50 mg/kg, PO 50 mg/kg (Group 4), 1 hr, read-out: Plasma Concentrations, Mean",2140 ng/mL
same,concentration at 2 h,[4]; [14],1300 ng/mL
same,concentration at 5 h,[4]; [14],230 ng/mL
same,Cmax,[4]; [15],1380 ng/g
same,Tmax,[4]; [15],0.5 h
same,AUC(0-t),[4]; [16],5440 ng·h/mL
same,Cmax,[4]; [16],2140 ng/mL
same,Tmax,[4]; [16],1 h
same,Cmax,[4]; [17],279 ng/g
same,Tmax,[4]; [17],1 h
same,AUC(0-t),[4]; [18],863 ng·h/mL
same,Cmax,[4]; [18],426 ng/mL
same,Tmax,[4]; [18],1 h
same,brain penetration from plasma,[4]; single oral dose of 10 mg/kg,76%
same,Average weight at endpoint,[5]; 15 mg/kg,16.9 g
same,Average weight at endpoint,[5]; 30 mg/kg,15.0 g
same,"median survival time (MeST), range",[6],29 to 75 days
same,tumor reoccurrence by MRI,[6]; after drug was discontinued,tumor reoccurrence; also recorded: all proceeded to develop lethal GL261 gliomas
same,long term survivors,[6]; oral 30 mg/kg once daily,no long term survivors
same,median survival time (MeST),"[6]; oral 30 mg/kg once daily, 30 mg/kg",29 days and 40 days
same,second GL261 tumor challenge in long term survivors,[7],rejected the second GL261 tumor challenge; also recorded: rejected a second GL261 tumor implant challenge
same,effect on intracellular survivin,[8],increased expression and altered the localization of intracellular survivin
